Experimental data from US10246786B2, “Renewable bioelectronic interface for electrobiocatalytic reactor” (priority 2009, dated 2019).

Legend:
[1] = test system: Mannitol dehydrogenase from Thermotoga maritima (TmMtDH); assay: Cyclic voltammetry of the Gly-TBO-PEI-NADH-TmMtDH-modified electrode with sugar substrates (calibration plot, saturation current, turnover); type: biochemical; details: substrate tested on Gly-TBO-PEI-NADH-TmMtDH-modified electrode; 100 mM PBS pH 6.0, 60° C.
Method: Cyclic voltammetric experiments were conducted by sweeping the potential of the working electrode between 200 mV and −600 mV at a scan rate of 100 mV s^−1, causing fructose in the vicinity of the electrode to be reduced to mannitol in the […] direction and mannitol to be oxidized to fructose in the reverse direction. All electrochemical measurements were made in 100 mM PBS (pH 6.0) at 60° C. using an electrode with a controlled surface area of 0.07 cm^2. The slope of the calibration plot, which depicts peak current vs. concentration, is a measure of the biosensor's sensitivity. The maximum turnover rate (TRmax), which corresponds to the number of fructose molecules reduced per TmMtDH molecule per second, was calculated using Eq. 6 (Eisenwiener and Schulz, 1969):
[formula] where the background current (I0) and saturation current (Icat^sat) are given by the y-intercept of the calibration curve and the plateau current at a given concentration, respectively. Electrochemical Impedance Spectroscopy
The slope of the calibration curve (0.70±0.01 μA) mM^−1 cm^−2) is a measure of the biosensor's sensitivity. At higher concentrations, the anodic current reached a saturation value (Icat^sat=740.9±11.6 μA cm^−2). This value was used to calculate a TRmax, which represents the number of molecules of fructose reduction per TmMtDH molecule per second, of 57.5±2.8 s^−1, using Eq. 6 (Eisenwiener and Schulz, 1969).
The selectivity of the Gly-TBO-PEI-NADH-TmMtDH-modified electrode was examined by testing alternative substrates.

[2] = carboxylic acid group; cited from earlier work

Compound	Icat^sat [1]	Sensitivity [1]	pKa [2]
OC1COC(O)C(O)C1O (centres unmarked) [Arbinose, arbinose]	542.8 ± 9.1 μA cm^−2	0.3 ± 0.0 μA mM^−1 cm^−2	
O=C(CO)[C@@H](O)[C@H](O)[C@H](O)CO [Fructose, D-fructose]	748.2 ± 11.7 μA cm^−2	10.1 ± 0.2 μA mM^−1 cm^−2	
NCC(=O)O [Gly, Glycine]			~4.3
O=C(O)CCS [MPA]			~4.3
O=C(CO)[C@H](O)[C@@H](O)[C@H](O)CO [Sorbose, sorbose]	562.4 ± 1.4 μA cm^−2	0.4 ± 0.0 μA mM^−1 cm^−2	
